Measurements taken from patent US8748170B2, “Polypeptides derived from cyclin B1 and uses thereof” (priority 2008, dated 2014).

Tested on: CD4+T cells
Assay: CFSE dilution proliferation of CD4+ T cells in PBMC of heavy smokers
Type: cell-based, human
Conditions: PBMC from 5 heavy smokers negative for lung cancer by CT; peptide approximately 2 μg/ml; 6 days; one or more of the peptides
Description: The amino acid sequence of the whole CB1 protein was synthesized as a series of peptides (generally 12-15 amino acids in length) that overlap by 11 amino acids (each peptide is offset by 4 amino acids). This approach is used when HLA of the subjects being tested is unknown and when there is a potential for multiple reactive peptides restricted by a variety of HLA molecules. It is also useful when the blood collection volumes are too small for dendritic cell generation, and other antigen presenting cells in the peripheral blood are counted on to present peptides without the need for further antigen processing.
Peripheral blood was collected into vaccutainers containing heparin sulfate and processed to obtain peripheral blood mononuclear cells (PBMC) by density centrifugation. PBMC were washed in PBS and labeled with 5 μM CFSE (Invitrogen) in warmed 0.1% FBS in PBS for 10 minutes at 37° C. The CFSE was quenched with 3 volumes of ice cold complete RPMI and incubated for 5 minutes before washes with complete RPMI. PBMC were then resuspended in media containing anti-CD28 and anti-CD49d antibodies for additional costimualtion. Wells coated with anti-CD3 were used as positive controls. Peptides were added at approximately 2 μg/ml. No peptide was added to negative control wells. After 6 days, cells were stained for cell surface markers and tested for proliferation by CFSE dilution using flow cytometry. Peptides that induced proliferation above that seen in the wells receiving no peptides were considered to be stimulatory.

Sequence | CD4+ T cell proliferation in response to peptide, above background (no peptide)
KFRLLQETMYMTVSI [Pep61, cyclin B1 amino acids 215-229] | show proliferation
LQETMYMTVSIIDRF [Pep62, cyclin B1 amino acids 219-233] | show proliferation
MYMTVSIIDRFM [Pep63, cyclin B1 amino acids 223-234] | show proliferation
